What is called IC50 is the concentration that inhibits the measured activity by half.

Data set [1] relates to conjunctival epithelial cells. In words: IL-6 secretion by house dust mite (HDM) in conjunctival epithelial cells (enzyme immunoassay). The format is cell-based, human. The settings on record: 10 μg/mL HDM 24 hours. The protocol: Next, conjunctival epithelial cells showing a high response to the concentration increase of intracellular calcium ions by HDM and PAR2-AP were treated with 1, 3, and 10 μM punicalagin, and after treating with 10 μg/mL HDM for 24 hours, secreted IL-6 cytokines were measured by enzyme immunoassay. As a result, it was confirmed that 1, 3, and 10 μM punicalagin inhibited about 50, 91, and 93% of IL-6 cytokines that were increased by HDM, respectively (panel C of FIG. 5).

The target of data set [2] is T1, PAR2 (Homo sapiens, UniProt P55085).
T1 sequence (P55085 26-397): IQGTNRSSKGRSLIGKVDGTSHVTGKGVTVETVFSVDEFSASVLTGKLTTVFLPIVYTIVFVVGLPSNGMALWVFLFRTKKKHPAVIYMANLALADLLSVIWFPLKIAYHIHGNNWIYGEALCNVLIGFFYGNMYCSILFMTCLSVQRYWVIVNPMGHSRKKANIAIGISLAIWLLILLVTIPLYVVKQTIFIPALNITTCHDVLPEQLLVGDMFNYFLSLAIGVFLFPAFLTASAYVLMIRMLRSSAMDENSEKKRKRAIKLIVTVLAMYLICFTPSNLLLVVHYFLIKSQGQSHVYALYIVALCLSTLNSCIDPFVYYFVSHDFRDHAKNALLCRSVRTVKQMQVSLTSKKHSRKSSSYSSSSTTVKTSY
As to the kind of experiment: Intracellular calcium increase by trypsin (PAR2 receptor activation) in HaCaT keratinocytes. The format is cell-based. On the set-up: endogenous in cells; host or cells: HaCaT keratinocytes. As for the experimental part: After keratinocytes (HaCaT) were cultured for 48 hours in a 96-well micro plate with the DMEM culture medium, the culture medium was removed, and then, 100 μL of the Flou4-NW dye mixture was added. While blocking the light, it was stabilized for 1 hour such that a calcium ion dye (Ca^2+ dye) was loaded into the cells. 100 μM punicalagin was treated, and the concentration change of intracellular calcium ions was measured for 5 minutes (panel A of FIG. 17). Next, punicalin (0, 1, 3, 10, 20, 30, 100, and 300 μM) by concentration (panel B of FIG. 17) or punicalagin (0, 1, 3, 5, 10, 20, 30, and 100 μM) by concentration (panel C of FIG. 17) was treated for 10 minutes, and then, each well was treated with 0.1 μM trypsin to measure the concentration change of intracellular calcium ions according to PAR2 receptor activation.
In general terms: Calcium flux is commonly read through the fluorescence of an indicator in the cells.

Data set [3] can be described thus: Weight change of wild-type mice. Format: in vivo. Particulars: 10 mg/kg intraperitoneally at 2-day intervals. The protocol:
In order to determine the toxicity of punicalagin, the effect of NIH3T3 cells on cell viability and the weight change of 8-week-old wild-type mice were evaluated, and the heart, liver, and lung were extracted from 30-week-old lupus mice and were histologically evaluated by performing hematoxylin-eosin staining.

Data set [4] deals with ICR mice with atopic dermatitis induced by DNFB. As to the kind of experiment: Atopic dermatitis and pruritus induced by DNFB in mice. The format is in vivo. Particulars: 3 mg/kg intraperitoneally daily. The protocol: In 12-week-old ICR mice, it was confirmed whether punicalagin inhibits pruritus caused by atopic dermatitis induced by 1-fluoro-2,4-dinitrobenzene (DNFB).
Specifically, as shown in panel A of FIG. 19, punicalagin (PG) was dissolved in physiological saline and intraperitoneally injected at 3 mg/kg daily for 17 days, and atopic dermatitis and pruritus were induced by treating 0.15% DNFB dissolved in acetone with a cotton swab on the back of the mice on the 10th, 13th, 20th, and 27th days.

For data set [5], the target named is T1, PAR2. In words: Intracellular calcium increase by house dust mite extract and PAR2-AP in primary cultured conjunctival epithelial cells. The format is cell-based. On the set-up: endogenous in cells. The settings on record: 10 μM, 10 μg/mL HDM extract, 100 μM PAR2-AP. The protocol: In order to determine whether punicalagin has an effect of inhibiting cytokine secretion by house dust mites (HDM), after removing a culture medium of conjunctival epithelial cells that were primary cultured and differentiated in a transwell, 300 μL of the Flou4-NW dye mixture was added, and then, it was stabilized for 1 hour such that a Ca^2+ dye was loaded into the cells while blocking the light. Next, punicalagin was pretreated by concentration (0, 10, and 30 μM) for 10 minutes, and then, it was treated with a 10 μg/mL house dust mite extract (HDM extract). Afterwards, the concentration change of calcium ions (Ca^2+) was measured for 3 minutes at 1-second intervals, and 100 μM PAR2-AP was treated to measure whether punicalagin inhibited the concentration change of intracellular calcium ions by PAR2 receptor activation.

Data set [6] has as its system carbonic anhydrase. The settings on record: cited from earlier work.
In data set [7] the target is T1, PAR2. As to the kind of experiment: Cellular signal changes and inflammatory cytokine secretion by PAR2 receptor activity in human glomerular podocytes. On the set-up: endogenous in cells. Format: cell-based. The protocol:
The effects of punicalagin on cellular signal changes and inflammatory cytokine secretion by PAR2 receptor activity in human glomerular podocytes were evaluated.

For data set [8], the system named is C57BL6N mice with pruritus induced by PAR2-AP. As to the kind of experiment: Pruritus induced by PAR2-AP in mice (number of scratches). The format is in vivo. Particulars: for number of scratches during the initial 10 minutes: saline group 104; for number of scratches for 40 minutes: PAR2-AP group about 240. The protocol:
In seven-week-old C57BL6N mice, it was confirmed whether punicalagin (PG) has an effect of alleviating pruritus symptoms induced by PAR2 receptor activation by PAR2-AP (activating peptide). In addition, the effects of punicalin (PNC) and ellagic acid (EA), which are metabolites of punicalagin and contained in pomegranate peel in a large amount, were also confirmed.
Specifically, each of 0, 1, 3, and 10 mg/kg punicalagin (n=4) was dissolved in physiological saline and intraperitoneally injected, and after 30 minutes, 100 μg of PAR2-AP was intradermally injected to induce pruritus. As control groups, a group which was intraperitoneally injected with physiological saline only (n=4) and a group which was intraperitoneally injected with 10 mg/kg punicalagin (n=4) were established, and the number of scratches was measured for 40 minutes.

Where only a bound is given, the exact number is not on record here.

On to `O=CC1OC(=O)c2cc(O)c(O)c(O)c2-c2c(cc(O)c(O)c2O)C(=O)OC1C1OC(=O)c2cc(O)c(O)c(O)c2-c2c(O)c(O)c3oc(=O)c4c(c(O)c(O)c5oc(=O)c2c3c54)-c2c(cc(O)c(O)c2O)C(=O)OCC1O` (stereo not shown) [punicalagin, 1,2,3,11,12,13-hexahydroxy-5,10-dioxo-8-[3,4,5,11,17,18,19,22,23,34,35-undecahydroxy-8,14,26,31-tetraoxo-9,13,25,32-tetraoxaheptacyclo[25.8.0.0^2,7.0^15,20.0^21,30.0^24,29.0^28,33]pentatnaconta-1(35),2,4,6,15,17,19,21,23,27,29,33-dodecaen-10-yl]-5,7,8,10-tetrahydrodibenzo[f,h][1,4]dioxecin-7-carbaldehyde], for which the “inhibition of IL-6 cytokines increased by HDM” value in data set [1] (1 μM) is reported as “about 50%”; in data set [1] (3 μM), approximately 91%; in data set [1] (10 μM) it was approximately 93%. Besides, the “effect on the concentration of intracellular calcium ions in keratinocytes (without trypsin)” value in data set [2] (100 μM, 5 minutes) is given as “no effect”. Besides, the “inhibition of PAR2 receptor activity by trypsin” value in data set [2] (HaCaT, 0.1 μM trypsin, 10 minutes pretreatment) is listed as “inhibited PAR2 receptor activity by trypsin in a concentration-dependent manner”. The IC50 in data set [2] (HaCaT, 0.1 μM trypsin, read-out: IC50, inhibition of the PAR2 receptor (calcium increase by trypsin)) came to 5.24 µM. Also, in data set [2] (HaCaT, trypsin), the “strength of PAR2 receptor inhibition compared to punicalin” value is not below 3.7 times. The “weight change in wild-type mice” value in data set [3] is listed as “no weight change”. Moreover, the “suppression of the number of scratches caused by DNFB, measured for 30 minutes” value in data set [4] was “about 60%”. The “atopic dermatitis (skin inflammation)” value in data set [4] (0.15% DNFB) is listed as “significantly reduced”. In addition, in data set [5], the “concentration increases of intracellular calcium ions by house dust mites and PAR2-AP” value is reported as “all inhibited”. The “activity against carbonic anhydrase” value in data set [6] is on record as “inhibitory activity”. In data set [7], the “expression amounts of VCAM-1 and ICAM-1 increased by PAR2 receptor activity” value is recorded as “significantly reduced”. Besides, the “expressions of inflammatory cytokines (IL-6, IFN-γ, TNF-α, and IL-8)” value in data set [7] (concentration-dependent) is “significantly reduced”. For the same compound, the “phosphorylation of ERK 1/2 according to PAR2 receptor activity by PAR2-AP” value in data set [7] (concentration-dependent) is “inhibited”. Further, in data set [7] (concentration-dependent), the “phosphorylation of NF-κB P65 according to PAR2 receptor activity” value is on record as “inhibited”. Moreover, the “number of scratches during the initial 10 minutes” value in data set [8] (1 mg/kg intraperitoneally, 100 μg PAR2-AP intradermally) is “about 59 times”; in data set [8] (3 mg/kg intraperitoneally) it was approximately 28 times; in data set [8] (10 mg/kg intraperitoneally), approximately 14 times. Further, the results for the “number of scratches for 40 minutes” value in data set [8] (1 mg/kg), in data set [8] (3 mg/kg) and in data set [8] (10 mg/kg) were “about 188 times”, approximately 103 times and approximately 40 times, respectively.
